Experimental data published in article PMC9352670 (2022).

Tested on: Dm-HS-1 TTC ∆ s.c. (DNA, aptamer, no side-chain at 22 (codon 2 TTC); others as HFNAP: fluorophenyl at 19; allylamine at 25, 37; alcohol at 28, 34, 49; phenol at 31, 46; cyclopentyl at 40; cyclopropyl at 43, 58; imidazole at 52, 55, 61) GAAAGCAGGACTGGAGATCGATTCTGGTGCTGTTGATCTCCGCCATTGTGCTCCTACCCTTCACAGACCGAACTAGAGCTT
Experiment: microscale thermophoresis
Details: 5 mM KCl, 1 mM MgCl2, 1 mM CaCl2 added to HBS-P+; HBS-P+ buffer, 25 °C

COc1cccc2c1C(=O)c1c(O)c3c(c(O)c1C2=O)C[C@@](O)(C(C)=O)C[C@@H]3O[C@H]1C[C@H](N)[C@H](O)[C@H](C)O1
Kd: 16.2 ± 3.2 nM
